These results are taken from patent EP4644375A1, “SUBSTITUTED HYDROQUINOLINES FOR THE TREATMENT OF GLIOBLASTOMA MULTIFORME” (Molius Saglik Teknolojileri Anonim Sirketi, priority 2024, dated 2025).

What is called inhibition is the share of the control response that was lost under treatment. Low readings indicate a response near the control, high ones a response far below the control.

Assay [1] deals with U87-MG human glioma cell. Put plainly: Cell proliferation analysis (MTT). The following applies: 10 µM, two days, MTT; for inhibition at 10 µM / activity at 10 µM: Homo sapiens, U-87 MG, 48 h. Format: cell-based. The protocol:
(§1) U87-MG and U138-MG human glioma cell, were incubated with 10% fetal bovine serum (FBS) (Gibco, 10500-064), 1% L-glutamine (Gibco, 25030-024), in a humidified incubator with 5% CO2 at 37 °C. The cells were contained in DMEM High Glucose (Gibco, 41966-029) supplemented with 1% penicillin-streptomycin (P/S) (Gibco 15140-122) solution. The cytotoxic effects of the target compounds on U87-MG and U138-MG cell lines were assessed using the MTT (Thiazolyl Blue Tetrazolium Bromide) method. 7×10^3 cells were seeded into a 96-well plate in 100 µl DMEM High Glucose 10% FBS and 1% P/S. 24 hours after cell incubation, each target compound was added at a dose of 10 µM and the drug treatment was carried out for two days. After the incubation period, 10 µL of MTT solution was added to each well (5 mg/ml in PBS). After 2 hours, MTT solutions were removed from the wells. Then, 100 µl DMSO was added, and mixed to dissolve the formazan crystals. Cell proliferation was analysed by measuring the absorbance of dissolved formazan at a wavelength of 570 nm.
(§2) IC50 values were determined using the same method as above wherein the cells were treated with the target compounds at different doses.

The test system of assay [2] is U138-MG human glioma cell. Nature of the assay: Cell proliferation analysis (MTT). The class given is cell-based. The following applies: 10 µM, two days, MTT; for inhibition at 10 µM / activity at 10 µM: Homo sapiens, 48 h. On the procedure:
as §1, §2

As to `Cc1ccccc1NC(=O)Oc1ccc2c(c1)CCC(=O)N2` [TR-G134, 2-oxo-1,2,3,4-tetrahydroquinolin-6-yl-o-tolylcarbamate], in assay [1], the “Cell Proliferation (%)” value worked out at 70% and the inhibition at 10 µM stood at 30%. Also, in assay [2], the “Cell Proliferation (%)” value amounted to 73% and 10 µM produced 27% inhibition.

On to `O=C1CCc2cc(OC(=O)Cc3ccccc3)ccc2N1` [TR-G007, 2-oxo-1,2,3,4-tetrahydroquinolin-6-yl 2-phenylacetate], for which, in assay [1], the activity at 10 µM is 91% and 10 µM produced 9% inhibition. In assay [2], this compound yielded an activity at 10 µM of 82% and an inhibition at 10 µM of 18%.

Consider `O=C1CCc2cc(OCCCCc3nnnn3C3CCCCC3)ccc2N1Cc1ccc(Cl)cc1` [TR-G111, 1-(4-chlorobenzyl)-6-(4-(1-cyclohexyl-1H-tetrazol-5-yl)butoxy)-3,4-dihydroquinolin-2(1H)-one], for which the “Cell Proliferation (%)” value is listed as 68% in assay [1] and 91% in assay [2]. The results for the inhibition at 10 µM in assay [1] and in assay [2] were 32% and 9%, respectively.

Consider `O=C1CCc2cc(OCCOCc3ccccc3)ccc2N1` [TR-G001, 6-(2-(benzyloxy)ethoxy)-3,4-dihydroquinolin-2(1H)-one], for which the “Cell Proliferation (%)” value was found to be 78% in assay [1] and 88% in assay [2]. Also, the inhibition at 10 µM in assay [1] is 22%; in assay [2], 12%.

Turning to `CCCC(CCC)C(=O)Oc1ccc2c(c1)CCC(=O)N2` [TR-G062, 2-oxo-1,2,3,4-tetrahydroquinolin-6-yl 2-propylpentanoate], the activity at 10 µM in assay [1] and in assay [2] was 87% in each case. For the same compound, the inhibition at 10 µM in assay [1] and in assay [2] was 13% in each case.

In assay [1], `O=C(COc1ccc2c(c1)CCC(=O)N2)N/N=C1\C(=O)Nc2ccc(F)cc21` [TR-G050, (Z)-N'-(5-fluoro-2-oxoindolin-3-ylidene)-2-((2-oxo-1,2,3,4-tetrahydroquinolin-6-yl)oxy)acetohydrazide] displayed an activity at 10 µM of 69% and an inhibition at 10 µM of 31%. In addition, in assay [2], the activity at 10 µM worked out at 54% and the inhibition at 10 µM worked out at 46%.

As for `O=C1CCc2cc(OC(=O)Nc3ccccc3Br)ccc2N1` [TR-G136, 2-oxo-1,2,3,4-tetrahydroquinolin-6-yl (2-bromophenyl)carbamate], the “Cell Proliferation (%)” value was 89% in assay [1] and 60% in assay [2]. Further, the inhibition at 10 µM in assay [1] amounted to 11%; in assay [2], 40%.

As to `Cc1ccc(COc2ccc3c(c2)CCC(=O)N3)cc1` [TR-G041, 6-((4-methylbenzyl)oxy)-3,4-dihydroquinolin-2(1H)-one], the activity at 10 µM is 70% in assay [1] and 74% in assay [2]. For the same compound, the results for the inhibition at 10 µM in assay [1] and in assay [2] were 30% and 26%, respectively.

With `O=C1CCc2cc(OCc3cc(-c4ccc(F)cc4)no3)ccc2N1` [TR-G142, 6-((3-(4-fluorophenyl)isoxazol-5-yl)methoxy)-3,4-dihydroquinolin-2(1H)-one], in assay [1], the activity at 10 µM stood at 55% and the inhibition at 10 µM was 46%. Besides, in assay [2], the activity at 10 µM worked out at 70% and testing at 10 µM gave an inhibition of 30%.

Take `COc1ccc(S(=O)(=O)Oc2ccc3c(c2)CCC(=O)N3)cc1OC` [TR-G085, 2-oxo-1,2,3,4-tetrahydroquinolin-6-yl 3,4-dimethoxybenzenesulfonate]: the activity at 10 µM in assay [1] came to 53%; in assay [2] it was 71%. In addition, the inhibition at 10 µM is 47% in assay [1] and 29% in assay [2].

`C=CCOc1ccc2c(c1)CCC(=O)N2CC=C` [TR-G014A, 1-allyl-6-(allyloxy)-3,4-dihydroquinolin-2(1H)-one]: in assay [1], the activity at 10 µM was found to be 82% and the inhibition at 10 µM came out at 19%. In assay [2], this compound yielded an activity at 10 µM of 68% and an inhibition at 10 µM of 32%.

For the compound `O=C1CCc2cc(OCCCCc3nnnn3C3CCCCC3)ccc2N1Cc1ccc(F)cc1` [TR-G112, 6-(4-(1-cyclohexyl-1H-tetrazol-5-yl)butoxy)-1-(4-fluorobenzyl)-3,4-dihydroquinolin-2(1H)-one], in assay [1], the activity at 10 µM amounted to 60% and the inhibition at 10 µM came to 41%. In assay [2], this compound registered an activity at 10 µM of 43% and an inhibition at 10 µM of 58%.

Consider `Cc1cn(-c2cc(NC(=O)COc3ccc4c(c3)CCC(=O)N4)cc(C(F)(F)F)c2)cn1` [TR-G054, N-(3-(4-methyl-1H-imidazol-1-yl)-5-(trifluoromethyl)phenyl)-2-((2-oxo-1,2,3,4-tetrahydroquinolin-6-yl)oxy)acetamide], for which, in assay [1], the activity at 10 µM turned out to be 84% and the inhibition at 10 µM worked out at 16%. In assay [2], this compound registered an activity at 10 µM of 79% and an inhibition at 10 µM of 21%.

Regarding `O=C1CCc2cc(OC(=O)Nc3ccc([N+](=O)[O-])cc3)ccc2N1` [TR-G133, 2-oxo-1,2,3,4-tetrahydroquinolin-6-yl (4-nitrophenyl)carbamate], in assay [1], the activity at 10 µM was 93% and 10 µM produced 7% inhibition. In assay [2], this compound registered an activity at 10 µM of 77% and an inhibition at 10 µM of 23%.

Take `O=C(COc1ccc2c(c1)CCC(=O)N2)N/N=C/c1cccc2ccccc12` [TR-G141, (E)-N'-(naphthalen-1-ylmethylene)-2-((2-oxo-1,2,3,4-tetrahydroquinolin-6-yl)oxy)acetohydrazide]: in assay [1], the activity at 10 µM turned out to be 53% and the inhibition at 10 µM amounted to 47%. Also, in assay [2], the activity at 10 µM turned out to be 65% and 10 µM produced 35% inhibition.

As for `NC(=O)COCCOc1ccc2c(c1)CCC(=O)N2` [TR-G126, 2-(2-((2-oxo-1,2,3,4-tetrahydroquinolin-6-yl)oxy)ethoxy)acetamide], in assay [1], the activity at 10 µM was 70% and the inhibition at 10 µM was found to be 30%. For the same compound, in assay [2], the activity at 10 µM worked out at 97% and the inhibition at 10 µM came out at 3%.

In assay [1], `COc1ccc(C(=O)Oc2ccc3c(c2)CCC(=O)N3)cc1OC` [TR-G008, 2-oxo-1,2,3,4-tetrahydroquinolin-6-yl 3,4-dimethoxybenzoate] showed an activity at 10 µM of 63% and an inhibition at 10 µM of 37%. In assay [2], this compound had an activity at 10 µM of 65% and an inhibition at 10 µM of 35%.

In the case of `O=C1CCc2cc(OCC(=O)N3CCN(c4ccc(C(F)(F)F)cc4)CC3)ccc2N1` [TR-G087, 6-(2-oxo-2-(4-(4-(trifluoromethyl)phenyl)piperazin-1-yl)ethoxy)-3,4-dihydroquinolin-2(1H)-one], in assay [1], the activity at 10 µM is 58% and the inhibition at 10 µM was found to be 42%. In assay [2], this compound showed an activity at 10 µM of 55% and an inhibition at 10 µM of 45%.

In assay [1], `O=C1CCc2cc(OS(=O)(=O)c3ccc(Br)cc3)ccc2N1` [TR-G048, 2-oxo-1,2,3,4-tetrahydroquinolin-6-yl 4-bromobenzenesulfonate] returned an activity at 10 µM of 69% and an inhibition at 10 µM of 31%. In addition, in assay [2], the activity at 10 µM worked out at 61% and the inhibition at 10 µM was found to be 39%.

`O=C1CCc2cc(OCC3CC3)ccc2N1` [TR-G010, 6-(cyclopropylmethoxy)-3,4-dihydroquinolin-2(1H)-one]: the activity at 10 µM in assay [1] and in assay [2] was 74% throughout. Besides, the inhibition at 10 µM in assay [1] and in assay [2] was 26% each time.
